Test results reported in patent publication US6653455B1, “Crystallization of doxorubicin hydrochloride” (Mercian Corporation, priority 1998, dated 2003).
Where a name gives a salt, the structure may show the parent alone.

Assay: Hygroscopicity, cup method (weight change)
Format: physicochemical
Conditions: weight-increasing rate, 25° C., 50 to 60% RH, 15 minutes; crystals dried at 40° C. under vacuum; hydrochloride
Experimental: Determined by the following cup method. To be specific, about 15 to 20 mg of the sample was put in a cylindrical cup having a diameter of 6 mm and a depth of 6 mm and left standing at a fixed temperature (25° C.) and relative humidity (50 to 60% RH) for 15 minutes to measure a weight change, whereby the hygroscopicity was evaluated.
In the following respective examples, a weight-increasing rate of 0.40% or more is shown by an evaluation criterion that the hygroscopicity is large (−); a weight-increasing rate of 0.20% or more and less than 0.40% is shown by an evaluation criterion that the hygroscopicity is ;intermediate (±); and a weight-increasing rate of less than 0.20% is shown by an evaluation criterion that the hygroscopicity is small: (+).
With `COc1cccc2c1C(=O)c1c(O)c3c(c(O)c1C2=O)C[C@@](O)(C(=O)CO)C[C@@H]3O[C@H]1C[C@H](N)[C@H](O)[C@H](C)O1` [Example 1, doxorubicin hydrochloride] the Hygroscopicity was “− (a weight-increasing rate of 0.40% or more is shown by an evaluation criterion that the hygroscopicity is large (−))”.
With `COc1cccc2c1C(=O)c1c(O)c3c(c(O)c1C2=O)C[C@@](O)(C(=O)CO)C[C@@H]3O[C@H]1C[C@H](N)[C@H](O)[C@H](C)O1` [Example 3, doxorubicin hydrochloride] the Hygroscopicity was “− (a weight-increasing rate of 0.40% or more is shown by an evaluation criterion that the hygroscopicity is large (−))”.
In the case of `COc1cccc2c1C(=O)c1c(O)c3c(c(O)c1C2=O)C[C@@](O)(C(=O)CO)C[C@@H]3O[C@H]1C[C@H](N)[C@H](O)[C@H](C)O1` [Example 8, doxorubicin hydrochloride], the Hygroscopicity is reported as “− (a weight-increasing rate of 0.40% or more is shown by an evaluation criterion that the hygroscopicity is large (−))”.
With `COc1cccc2c1C(=O)c1c(O)c3c(c(O)c1C2=O)C[C@@](O)(C(=O)CO)C[C@@H]3O[C@H]1C[C@H](N)[C@H](O)[C@H](C)O1` [Example 9, doxorubicin hydrochloride] the Hygroscopicity was “− (a weight-increasing rate of 0.40% or more is shown by an evaluation criterion that the hygroscopicity is large (−))”.
For `COc1cccc2c1C(=O)c1c(O)c3c(c(O)c1C2=O)C[C@@](O)(C(=O)CO)C[C@@H]3O[C@H]1C[C@H](N)[C@H](O)[C@H](C)O1` [Example 14, doxorubicin hydrochloride], the Hygroscopicity was “± (a weight-increasing rate of 0.20% or more and less than 0.40% is shown by an evaluation criterion that the hygroscopicity is ;intermediate (±))”.
For `COc1cccc2c1C(=O)c1c(O)c3c(c(O)c1C2=O)C[C@@](O)(C(=O)CO)C[C@@H]3O[C@H]1C[C@H](N)[C@H](O)[C@H](C)O1` [Example 15, doxorubicin hydrochloride], the Hygroscopicity was “− (a weight-increasing rate of 0.40% or more is shown by an evaluation criterion that the hygroscopicity is large (−))”.
With `COc1cccc2c1C(=O)c1c(O)c3c(c(O)c1C2=O)C[C@@](O)(C(=O)CO)C[C@@H]3O[C@H]1C[C@H](N)[C@H](O)[C@H](C)O1` [Example 17, doxorubicin hydrochloride] the Hygroscopicity was “− (a weight-increasing rate of 0.40% or more is shown by an evaluation criterion that the hygroscopicity is large (−))”.
For `COc1cccc2c1C(=O)c1c(O)c3c(c(O)c1C2=O)C[C@@](O)(C(=O)CO)C[C@@H]3O[C@H]1C[C@H](N)[C@H](O)[C@H](C)O1` [Example 18, doxorubicin hydrochloride], the Hygroscopicity was “− (a weight-increasing rate of 0.40% or more is shown by an evaluation criterion that the hygroscopicity is large (−))”.
For `COc1cccc2c1C(=O)c1c(O)c3c(c(O)c1C2=O)C[C@@](O)(C(=O)CO)C[C@@H]3O[C@H]1C[C@H](N)[C@H](O)[C@H](C)O1` [Example 25, doxorubicin hydrochloride], the Hygroscopicity was “+ (a weight-increasing rate of less than 0.20% is shown by an evaluation criterion that the hygroscopicity is small: (+))”.
In the case of `COc1cccc2c1C(=O)c1c(O)c3c(c(O)c1C2=O)C[C@@](O)(C(=O)CO)C[C@@H]3O[C@H]1C[C@H](N)[C@H](O)[C@H](C)O1` [Example 26, doxorubicin hydrochloride], the Hygroscopicity is reported as “+ (a weight-increasing rate of less than 0.20% is shown by an evaluation criterion that the hygroscopicity is small: (+))”.
For `COc1cccc2c1C(=O)c1c(O)c3c(c(O)c1C2=O)C[C@@](O)(C(=O)CO)C[C@@H]3O[C@H]1C[C@H](N)[C@H](O)[C@H](C)O1` [Example 27, doxorubicin hydrochloride], the Hygroscopicity was “± (a weight-increasing rate of 0.20% or more and less than 0.40% is shown by an evaluation criterion that the hygroscopicity is ;intermediate (±))”.
With `COc1cccc2c1C(=O)c1c(O)c3c(c(O)c1C2=O)C[C@@](O)(C(=O)CO)C[C@@H]3O[C@H]1C[C@H](N)[C@H](O)[C@H](C)O1` [Example 29, doxorubicin hydrochloride] the Hygroscopicity was “+ (a weight-increasing rate of less than 0.20% is shown by an evaluation criterion that the hygroscopicity is small: (+))”.
